We go through 7 compounds from ChEMBL document CHEMBL1201862, “PubChem BioAssay data set” (2004).

Test systems include EKVX; SN12C; SNB-75; UO-31; OVCAR-8; UACC-62; M14; RPMI-8226; KM12; SF-539; SW-620; T47D; SK-MEL-5; SNB-19; A549; SK-OV-3; SF-295; A498; IGROV-1; K562.
What all share (experiment): DTP human tumour cell line panel, 48 h

Each structure is given as a SMILES string.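 Method: 48-hour compound exposure of cells in 96-well plates, five concentrations, linear interpolation of endpoints. GI50 = concentration required for 50% inhibition of growth.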 Active and inactive are the calls of the source. Cut-off read from the data, not from the text of the source: active = GI50 up to about 1.1 µM and inactive = higher.

For orientation: GI50 means the concentration giving 50% growth inhibition. As to `N#Cc1c(N)[nH]c2ccc(Sc3ccccc3)cc12`, the GI50 was 0.659 µM (active) in the assay with EKVX; 0.574 µM (active) with SN12C; 0.624 µM (active) in the assay with SNB-75; 0.236 µM (active) in the assay with UO-31; 0.358 µM (active) in the assay on OVCAR-8; 0.133 µM (active) with UACC-62. Besides, the GI50 in the assay on M14 was 0.0828 µM (active); in the assay on RPMI-8226 it was 0.361 µM (active); in the assay with KM12, 0.113 µM (active); in the assay with SF-539 it was 0.234 µM (active); with SW-620, 0.121 µM (active); with T47D, 0.622 µM (active). Also, the GI50 with SK-MEL-5 was 0.145 µM (active); in the assay on SNB-19, 0.46 µM (active); in the assay on A549 it was 0.282 µM (active); in the assay with SK-OV-3, 0.53 µM (active); in the assay with SF-295, 0.23 µM (active); in the assay on A498 it was 0.196 µM (active). For the same compound, the GI50 in the assay on IGROV-1 is 0.198 µM (active); with K562 it was < 0.0635 µM (active).

Turning to `CCCCN1C(=O)c2c(Br)sc(Br)c2C1=O`, the GI50 in the assay with EKVX was 70.1 µM (inactive); in the assay on SN12C, 34.5 µM (inactive); in the assay with SNB-75, 29.5 µM (inactive); in the assay on UO-31, 33.9 µM (inactive); in the assay on OVCAR-8 it was 38.9 µM (inactive); in the assay on UACC-62, 32.4 µM (inactive). The GI50 in the assay with M14 is 31.1 µM (inactive); in the assay with RPMI-8226, 29.3 µM (inactive); in the assay with KM12, 25.1 µM (inactive); in the assay with SF-539, 24.2 µM (inactive); in the assay on SW-620 it was 24.8 µM (inactive); with T47D it was 57.7 µM (inactive). Also, the GI50 was 39.5 µM (inactive) with SK-MEL-5; 51.5 µM (inactive) with SNB-19; 25.8 µM (inactive) in the assay with A549; 37.6 µM (inactive) in the assay on SK-OV-3; 43.1 µM (inactive) with SF-295; 50.6 µM (inactive) with A498. The GI50 with IGROV-1 was 31.6 µM (inactive); with K562, 30.5 µM (inactive).

Consider `CCCCCCCCCCCCCCCCCCOC(COP(=O)(O)OCC1OC(n2cc(F)c(=O)[nH]c2=O)CC1O)COP(=O)(O)OCC1OC(n2ccc(N)nc2=O)C(O)C1O` (stereo not given), for which the GI50 with EKVX is > 100 µM (inactive); in the assay on SN12C it was 23.9 µM (inactive); in the assay on SNB-75, 22.6 µM (inactive); with UO-31, 9.64 µM (inactive); in the assay on OVCAR-8 it was 4.51 µM (inactive); with UACC-62, 2.56 µM (inactive). In addition, the GI50 in the assay on M14 is 6.34 µM (inactive); in the assay with RPMI-8226 it was 10.9 µM (inactive); in the assay with KM12, 59.2 µM (inactive); in the assay with SF-539, 0.863 µM (active); in the assay on SW-620, 60.7 µM (inactive); in the assay on T47D, > 100 µM (inactive). In addition, the GI50 was > 73.5 µM (inactive) in the assay on SK-MEL-5; 6.46 µM (inactive) in the assay on SNB-19; 2.81 µM (inactive) in the assay on A549; > 71.3 µM (inactive) in the assay on SK-OV-3; 2.58 µM (inactive) in the assay on SF-295; 0.485 µM (active) in the assay with A498. For the same compound, the GI50 with IGROV-1 is 13.6 µM (inactive); in the assay with K562, > 32.2 µM (inactive).

As for `O=c1nc(N2CCCCC2)sc2[nH]c3ccccc3c12`, the GI50 is > 100 µM (inactive) in the assay on EKVX; > 100 µM (inactive) in the assay on SN12C; > 100 µM (inactive) in the assay with SNB-75; 24.8 µM (inactive) with UO-31; > 100 µM (inactive) in the assay with OVCAR-8; > 100 µM (inactive) in the assay on UACC-62. In addition, the GI50 with M14 is 34.8 µM (inactive); with RPMI-8226 it was 40.9 µM (inactive); with KM12, > 100 µM (inactive); in the assay on SF-539 it was > 100 µM (inactive); in the assay with SW-620 it was > 100 µM (inactive); with T47D it was > 100 µM (inactive). The GI50 with SK-MEL-5 was > 100 µM (inactive); in the assay with SNB-19 it was 63.1 µM (inactive); with A549, > 100 µM (inactive); in the assay with SK-OV-3, > 100 µM (inactive); in the assay with SF-295, > 100 µM (inactive); with A498, > 100 µM (inactive). Moreover, the GI50 in the assay on IGROV-1 was 78 µM (inactive); with K562, > 100 µM (inactive).

Take `CN(C)/C=N/S(=O)(=O)c1nn2c(C=O)c(-c3ccc(-c4ccccc4)cc3)nc2s1`: the GI50 with EKVX was 5.89 µM (inactive); with SN12C it was 1.97 µM (inactive); with SNB-75, 4.12 µM (inactive); with UO-31 it was 1.4 µM (inactive); with OVCAR-8, 5.28 µM (inactive); in the assay with UACC-62 it was 2.34 µM (inactive). The GI50 in the assay with M14 is 0.904 µM (active); with RPMI-8226, 0.83 µM (active); in the assay on KM12, 2.48 µM (inactive); in the assay with SF-539, 2.54 µM (inactive); with SW-620 it was 0.724 µM (active); in the assay with T47D it was 1.95 µM (inactive). The GI50 with SK-MEL-5 was 1.61 µM (inactive); in the assay on SNB-19 it was 11.9 µM (inactive); in the assay on A549, 11.5 µM (inactive); in the assay with SK-OV-3, 15.1 µM (inactive); with SF-295 it was 14.4 µM (inactive); in the assay on A498, 21.3 µM (inactive). For the same compound, the GI50 in the assay on IGROV-1 was 1.24 µM (inactive); in the assay on K562 it was 0.316 µM (active).

For `O=S(=O)(c1ccccc1)n1c(C(O)c2ccncc2)cc2ccccc21` (stereo not given), the GI50 in the assay on EKVX is 38.5 µM (inactive); in the assay with SN12C, > 100 µM (inactive); with SNB-75 it was 34 µM (inactive); in the assay on UO-31, 17.3 µM (inactive); in the assay on OVCAR-8 it was 50.6 µM (inactive); with UACC-62 it was 26.5 µM (inactive). Moreover, the GI50 in the assay with M14 is 32.7 µM (inactive); with RPMI-8226, 27.1 µM (inactive); in the assay with KM12, 57.1 µM (inactive); with SF-539, > 100 µM (inactive); in the assay with SW-620, 32 µM (inactive); in the assay with T47D it was 36 µM (inactive). Also, the GI50 is 16.8 µM (inactive) in the assay with SK-MEL-5; 50 µM (inactive) in the assay on SNB-19; 31.3 µM (inactive) in the assay on A549; 44.4 µM (inactive) with SK-OV-3; 48.5 µM (inactive) with SF-295; 38.7 µM (inactive) in the assay on A498. For the same compound, the GI50 was 39.2 µM (inactive) in the assay on IGROV-1 and 31.6 µM (inactive) with K562.

For `CC[C@@]1(O)C(=O)OCc2c1cc1n(c2=O)Cc2c-1nc1ccccc1c2/C=N\NC(=O)C1CCCN1` (stereo not given in full), the GI50 with EKVX was 9.55 µM (inactive); in the assay on SN12C, 0.0275 µM (active); in the assay with SNB-75, 0.104 µM (active); in the assay on UO-31, 0.457 µM (active); in the assay with OVCAR-8, 0.258 µM (active); in the assay on UACC-62, < 0.0182 µM (active). Moreover, the GI50 with M14 was 0.147 µM (active); in the assay on RPMI-8226, 0.818 µM (active); in the assay on KM12, 3.11 µM (inactive); with SF-539, < 0.01 µM (active); with SW-620 it was 0.185 µM (active); in the assay on T47D it was 0.0135 µM (active). The GI50 with SK-MEL-5 was 0.238 µM (active); with SNB-19 it was < 0.0209 µM (active); in the assay with A549, 0.826 µM (active); in the assay with SK-OV-3 it was 0.442 µM (active); with SF-295, 0.386 µM (active); with A498 it was 0.435 µM (active). Further, the results for the GI50 in the assay on IGROV-1 and in the assay with K562 were 5.2 µM (inactive) and 0.163 µM (active), respectively.
